Among the data in patent US8124610B2, “Sodium channel inhibitors” (Icagen Inc., priority 2007, dated 2012) are IC50 values, retold here.

Experiment [1] concerns the target T1, hSCN3A (Homo sapiens, UniProt Q9NY46).
T1 construct: expressed in transfected cells
Nature of the experiment: Whole-cell patch-clamp electrophysiology (conventional or PatchXpress), HEK cells expressing hSCN3A, estimated IC-50. The class given is cell-based. Conditions: estimated IC-50, HEK cells expressing hSCN3A; class symbols or bounds; read-out: SCN3A EIC-50. The gist of the method:
(§1)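 Current through each channel was evoked by a 20 ms step to 0 mV following an 8 s conditioning prepulse at the cell's own half-inactivation voltage. Recordings used HEK lines stably expressing the channel, conventional or PatchXpress patch clamp, room temperature, pH 7.4 bath; inhibition taken as pre/post-compound amplitude change.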

For experiment [2], the target named is T2, hSCN9A (Homo sapiens, UniProt Q15858).
T2 construct: expressed in transfected cells
In words: Whole-cell patch-clamp electrophysiology (conventional or PatchXpress), HEK cells expressing hSCN9A, estimated IC-50. Conditions: estimated IC-50, HEK cells expressing hSCN9A; class symbols or bounds; read-out: SCN9A EIC-50. The class given is cell-based. The gist of the method:
as §1

T1 sequence (Q9NY46 whole entry): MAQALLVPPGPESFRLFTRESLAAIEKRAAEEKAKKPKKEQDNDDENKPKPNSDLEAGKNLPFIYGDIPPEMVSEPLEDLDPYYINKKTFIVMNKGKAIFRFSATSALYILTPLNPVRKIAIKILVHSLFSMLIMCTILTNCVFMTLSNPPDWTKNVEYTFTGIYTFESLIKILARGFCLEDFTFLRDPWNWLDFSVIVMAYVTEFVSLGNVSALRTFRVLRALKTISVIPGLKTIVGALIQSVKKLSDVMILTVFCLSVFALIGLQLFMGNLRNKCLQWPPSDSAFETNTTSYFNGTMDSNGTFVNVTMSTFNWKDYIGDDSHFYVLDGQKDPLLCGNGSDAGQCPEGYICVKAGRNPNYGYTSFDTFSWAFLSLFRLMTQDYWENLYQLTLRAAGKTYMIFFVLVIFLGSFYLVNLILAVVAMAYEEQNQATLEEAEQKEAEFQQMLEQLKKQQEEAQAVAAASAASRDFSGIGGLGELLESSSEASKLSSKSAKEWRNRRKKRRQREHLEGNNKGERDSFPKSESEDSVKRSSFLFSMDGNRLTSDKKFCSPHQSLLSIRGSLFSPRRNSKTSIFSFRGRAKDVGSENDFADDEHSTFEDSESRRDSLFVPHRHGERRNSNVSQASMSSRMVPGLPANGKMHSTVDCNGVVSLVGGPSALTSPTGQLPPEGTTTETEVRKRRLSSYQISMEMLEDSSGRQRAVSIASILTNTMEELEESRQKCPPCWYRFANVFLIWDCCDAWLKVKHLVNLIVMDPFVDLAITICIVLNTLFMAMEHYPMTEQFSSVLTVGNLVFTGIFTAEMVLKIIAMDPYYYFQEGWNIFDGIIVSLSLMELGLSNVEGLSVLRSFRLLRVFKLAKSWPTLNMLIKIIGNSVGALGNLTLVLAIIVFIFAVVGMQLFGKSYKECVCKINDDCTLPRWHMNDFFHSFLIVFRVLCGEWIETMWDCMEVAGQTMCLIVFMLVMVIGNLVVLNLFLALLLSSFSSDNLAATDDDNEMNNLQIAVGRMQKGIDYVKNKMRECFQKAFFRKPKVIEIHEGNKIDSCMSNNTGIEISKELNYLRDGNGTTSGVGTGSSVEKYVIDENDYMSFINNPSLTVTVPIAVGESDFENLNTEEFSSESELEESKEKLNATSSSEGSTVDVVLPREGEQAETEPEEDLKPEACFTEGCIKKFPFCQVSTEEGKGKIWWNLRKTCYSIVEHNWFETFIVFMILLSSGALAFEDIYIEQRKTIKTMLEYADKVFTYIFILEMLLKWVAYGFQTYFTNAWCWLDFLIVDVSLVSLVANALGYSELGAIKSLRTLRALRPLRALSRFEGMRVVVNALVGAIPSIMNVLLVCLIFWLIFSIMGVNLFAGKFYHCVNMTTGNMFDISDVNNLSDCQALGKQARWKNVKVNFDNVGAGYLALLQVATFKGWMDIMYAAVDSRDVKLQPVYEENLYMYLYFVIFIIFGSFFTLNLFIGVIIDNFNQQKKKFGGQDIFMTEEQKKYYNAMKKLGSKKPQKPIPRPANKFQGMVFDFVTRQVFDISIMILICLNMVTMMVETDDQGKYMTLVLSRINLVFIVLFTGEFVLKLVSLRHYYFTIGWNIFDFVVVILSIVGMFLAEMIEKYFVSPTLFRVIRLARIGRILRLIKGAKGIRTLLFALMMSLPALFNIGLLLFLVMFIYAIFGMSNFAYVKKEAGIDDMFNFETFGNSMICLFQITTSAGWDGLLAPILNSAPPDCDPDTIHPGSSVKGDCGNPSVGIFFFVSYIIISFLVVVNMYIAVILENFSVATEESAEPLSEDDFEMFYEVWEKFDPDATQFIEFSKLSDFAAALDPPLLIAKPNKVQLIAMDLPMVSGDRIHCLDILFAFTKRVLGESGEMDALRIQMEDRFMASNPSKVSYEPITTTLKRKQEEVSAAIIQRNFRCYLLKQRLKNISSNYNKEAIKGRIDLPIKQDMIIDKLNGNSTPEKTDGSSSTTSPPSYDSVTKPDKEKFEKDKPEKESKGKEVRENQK
T2 sequence (Q15858 whole entry): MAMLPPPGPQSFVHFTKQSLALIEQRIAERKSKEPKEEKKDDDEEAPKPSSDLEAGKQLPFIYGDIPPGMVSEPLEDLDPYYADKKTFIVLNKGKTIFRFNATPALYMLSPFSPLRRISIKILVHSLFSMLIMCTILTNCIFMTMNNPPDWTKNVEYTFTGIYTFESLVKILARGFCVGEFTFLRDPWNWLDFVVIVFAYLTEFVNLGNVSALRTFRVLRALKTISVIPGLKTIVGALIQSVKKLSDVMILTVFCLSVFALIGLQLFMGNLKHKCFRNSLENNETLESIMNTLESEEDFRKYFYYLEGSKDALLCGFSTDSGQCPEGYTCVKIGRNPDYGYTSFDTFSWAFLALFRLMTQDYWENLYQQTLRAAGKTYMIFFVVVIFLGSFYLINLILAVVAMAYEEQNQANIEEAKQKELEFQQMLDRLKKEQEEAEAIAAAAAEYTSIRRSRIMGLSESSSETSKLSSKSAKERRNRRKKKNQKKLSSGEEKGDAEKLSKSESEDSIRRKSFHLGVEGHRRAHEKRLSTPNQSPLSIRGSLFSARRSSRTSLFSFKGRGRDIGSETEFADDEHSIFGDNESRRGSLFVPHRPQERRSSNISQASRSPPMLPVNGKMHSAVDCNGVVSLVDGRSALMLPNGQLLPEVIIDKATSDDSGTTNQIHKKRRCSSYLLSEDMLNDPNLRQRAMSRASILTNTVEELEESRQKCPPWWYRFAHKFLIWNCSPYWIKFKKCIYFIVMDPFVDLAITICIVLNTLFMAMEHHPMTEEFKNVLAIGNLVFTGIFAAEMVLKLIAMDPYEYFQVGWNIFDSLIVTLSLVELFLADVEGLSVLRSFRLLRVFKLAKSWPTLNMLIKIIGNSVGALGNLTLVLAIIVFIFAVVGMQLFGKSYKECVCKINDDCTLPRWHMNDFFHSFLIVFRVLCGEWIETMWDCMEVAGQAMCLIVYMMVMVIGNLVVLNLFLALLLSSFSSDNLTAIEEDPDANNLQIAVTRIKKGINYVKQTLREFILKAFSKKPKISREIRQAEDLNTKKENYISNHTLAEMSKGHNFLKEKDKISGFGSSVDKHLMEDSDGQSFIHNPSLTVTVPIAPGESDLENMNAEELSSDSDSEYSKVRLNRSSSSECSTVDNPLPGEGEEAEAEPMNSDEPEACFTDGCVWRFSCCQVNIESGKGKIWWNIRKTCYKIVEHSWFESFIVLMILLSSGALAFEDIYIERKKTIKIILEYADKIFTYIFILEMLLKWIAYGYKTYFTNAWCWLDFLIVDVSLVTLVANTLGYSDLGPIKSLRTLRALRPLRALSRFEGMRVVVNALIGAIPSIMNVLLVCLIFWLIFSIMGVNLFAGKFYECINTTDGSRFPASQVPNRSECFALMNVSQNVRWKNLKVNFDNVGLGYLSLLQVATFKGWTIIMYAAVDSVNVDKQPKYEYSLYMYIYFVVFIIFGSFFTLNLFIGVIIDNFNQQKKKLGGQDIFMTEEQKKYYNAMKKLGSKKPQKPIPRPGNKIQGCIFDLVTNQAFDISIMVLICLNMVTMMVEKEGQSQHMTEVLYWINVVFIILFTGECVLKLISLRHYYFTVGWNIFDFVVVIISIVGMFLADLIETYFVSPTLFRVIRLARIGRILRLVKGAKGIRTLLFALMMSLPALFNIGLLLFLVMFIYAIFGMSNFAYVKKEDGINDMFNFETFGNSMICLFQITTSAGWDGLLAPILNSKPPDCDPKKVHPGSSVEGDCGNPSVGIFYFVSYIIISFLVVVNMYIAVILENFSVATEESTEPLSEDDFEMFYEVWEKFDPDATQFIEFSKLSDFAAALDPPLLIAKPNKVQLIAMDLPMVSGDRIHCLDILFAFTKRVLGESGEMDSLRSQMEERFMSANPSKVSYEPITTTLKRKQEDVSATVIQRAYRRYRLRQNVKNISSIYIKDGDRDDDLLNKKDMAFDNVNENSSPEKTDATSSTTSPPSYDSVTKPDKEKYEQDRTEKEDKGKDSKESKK

For the molecule `O=S(=O)(Nc1nccs1)c1ccc(Nc2nc(C[S+]([O-])c3ccc(F)cc3)cs2)cc1` (centres unmarked) [Compound 89, 4-(4-((4-fluorophenylsulfinyl)methyl)thiazol-2-ylamino)-N-(thiazol-2-yl)benzenesulfonamide], the IC50 in experiment [1] was 2 to 10 µM; in experiment [2], over 1 µM.

As for `O=S(=O)(Nc1nccs1)c1ccc(Nc2nc(-c3ccc(C(F)(F)F)cc3F)cs2)cc1` [Compound 90, 4-(4-(2-fluoro-4-(trifluoromethyl)phenyl)thiazol-2-ylamino)-N-(thiazol-2-yl)benzenesulfonamide], the IC50 in experiment [1] is under 2 µM; in experiment [2] it was over 1 µM.

For `O=S(=O)(Nc1nccs1)c1ccc(Nc2nc(Cc3ccc(Cl)cc3)cs2)cc1` [Compound 91, 4-(4-(4-chlorobenzyl)thiazol-2-ylamino)-N-(thiazol-2-yl)benzenesulfonamide], the IC50 in experiment [1] and in experiment [2] was under 2 µM each time.

Take `O=S(=O)(Nc1nccs1)c1ccc(Nc2cncc(C(c3ccccc3)c3ccccc3)n2)cc1` [Compound 92, 4-(6-benzhydrylpyrazin-2-ylamino)-N-(thiazol-2-yl)benzenesulfonamide]: the IC50 was under 2 µM in experiment [1] and 2 to 10 µM in experiment [2].

For `O=S(=O)(Nc1nccs1)c1ccc(Nc2cccc(C(c3ccccc3)c3ccccc3)n2)cc1` [Compound 93, 4-(6-benzhydrylpyridin-2-ylamino)-N-(thiazol-2-yl)benzenesulfonamide], the IC50 in experiment [1] was under 2 µM; in experiment [2], over 1 µM.

In the case of `O=S(=O)(Nc1nccs1)c1ccc(Nc2nc(CCCOc3ccc(Cl)cc3)cs2)cc1` [Compound 94, 4-(4-(3-(4-chlorophenoxy)propyl)thiazol-2-ylamino)-N-(thiazol-2-yl)benzenesulfonamide], the IC50 in experiment [1] and in experiment [2] was under 2 µM in each case.

Take `O=S(=O)(Nc1nccs1)c1ccc(Nc2nc(COc3ccc(Cl)cc3Cl)cs2)cc1` [Compound 95, 4-(4-((2,4-dichlorophenoxy)methyl)thiazol-2-ylamino)-N-(thiazol-2-yl)benzenesulfonamide]: the IC50 in experiment [1] and in experiment [2] was under 2 µM each time.

As to `Cc1cc(Cl)ccc1OCc1csc(Nc2ccc(S(=O)(=O)Nc3nccs3)cc2)n1` [Compound 96, 4-(4-((4-chloro-2-methylphenoxy)methyl)thiazol-2-ylamino)-N-(thiazol-2-yl)benzenesulfonamide], the IC50 in experiment [1] and in experiment [2] was under 2 µM throughout.

Consider `CC(C)(Oc1ccc(Cl)cc1)c1csc(Nc2ccc(S(=O)(=O)Nc3nccs3)cc2)n1` [Compound 97, 4-(4-(2-(4-chlorophenoxy)propan-2-yl)thiazol-2-ylamino)-N-(thiazol-2-yl)benzenesulfonamide], for which the IC50 was under 2 µM in experiment [1] and over 1 µM in experiment [2].

Regarding `O=S(=O)(Nc1nccs1)c1ccc(Nc2cncc(Cc3cc(F)cc(F)c3)n2)cc1` [Compound 98, 4-(6-(3,5-difluorobenzyl)pyrazin-2-ylamino)-N-(thiazol-2-yl)benzenesulfonamide], the results for the IC50 in experiment [1] and in experiment [2] were under 2 µM and 2 to 10 µM, respectively.

Regarding `O=S(=O)(Nc1nccs1)c1ccc(Nc2nc3cc(Cl)ccc3[nH]2)cc1` [Compound 99, 4-(5-chloro-1H-benzo[d]imidazol-2-ylamino)-N-(thiazol-2-yl)benzenesulfonamide], the IC50 in experiment [1] is under 2 µM; in experiment [2], 2 to 10 µM.

Consider `Cn1c(Nc2ccc(S(=O)(=O)Nc3nccs3)cc2)nc2cc(Cl)ccc21` [Compound 100, 4-(5-chloro-1-methyl-1H-benzo[d]imidazol-2-ylamino)-N-(thiazol-2-yl)benzenesulfonamide], for which the values for the IC50 in experiment [1] and in experiment [2] were under 2 µM and 2 to 10 µM, respectively.

Take `Cn1c(Nc2ccc(S(=O)(=O)Nc3nccs3)cc2)nc2ccc(Cl)cc21` [Compound 101, 4-(6-chloro-1-methyl-1H-benzo[d]imidazol-2-ylamino)-N-(thiazol-2-yl)benzenesulfonamide]: the results for the IC50 in experiment [1] and in experiment [2] were under 2 µM and 2 to 10 µM, respectively.

With `O=S(=O)(Nc1ccccn1)c1ccc(Nc2nc(Cc3ccc(Cl)cc3)cs2)cc1` [Compound 103, 4-(4-(4-chlorobenzyl)thiazol-2-ylamino)-N-(pyridin-2-yl)benzenesulfonamide], the IC50 in experiment [1] is over 10 µM; in experiment [2], over 1 µM.

`O=S(=O)(Nc1nccs1)c1ccc(Nc2ncc(S(=O)(=O)c3ccc(Cl)cc3)s2)cc1F` [Compound 105, 4-(5-(4-chlorophenylsulfonyl)thiazol-2-ylamino)-2-fluoro-N-(thiazol-2-yl)benzenesulfonamide]: the IC50 was under 2 µM in experiment [1] and over 10 µM in experiment [2].

Consider `CC(C)(C)c1csc(Nc2ccc(S(=O)(=O)Nc3nccs3)cn2)n1` [Compound 106, 6-(4-tert-butylthiazol-2-ylamino)-N-(thiazol-2-yl)pyridine-3-sulfonamide], for which the values for the IC50 in experiment [1] and in experiment [2] were 2 to 10 µM and over 1 µM, respectively.

On to `O=S(=O)(Nc1nccs1)c1ccc(Nc2nc(Cc3ccc(Cl)cc3)cs2)nc1` [Compound 107, 6-(4-(4-chlorobenzyl)thiazol-2-ylamino)-N-(thiazol-2-yl)pyridine-3-sulfonamide], for which the IC50 in experiment [1] is under 2 µM; in experiment [2], 2 to 10 µM.

On to `Cc1cnc(NS(=O)(=O)c2ccc(Nc3nc(Cc4ccc(Cl)cc4)cs3)cc2F)s1` [Compound 108, 4-(4-(4-chlorobenzyl)thiazol-2-ylamino)-2-fluoro-N-(5-methylthiazol-2-yl)benzenesulfonamide], for which the IC50 in experiment [1] and in experiment [2] was 2 to 10 µM each time.

As to `Cc1csc(NS(=O)(=O)c2ccc(Nc3nc(Cc4ccc(Cl)cc4)cs3)cc2F)n1` [Compound 109, 4-(4-(4-chlorobenzyl)thiazol-2-ylamino)-2-fluoro-N-(4-methylthiazol-2-yl)benzenesulfonamide], the IC50 in experiment [1] is under 2 µM; in experiment [2], 2 to 10 µM.

As for `CC(C)(C)n1nc(Cc2ccc(Cl)cc2)cc1Nc1ccc(S(=O)(=O)Nc2ccccn2)cc1` [Compound 110, 4-(1-tert-butyl-3-(4-chlorobenzyl)-1H-pyrazol-5-ylamino)-N-(pyridin-2-yl)benzenesulfonamide], the values for the IC50 in experiment [1] and in experiment [2] were under 2 µM and over 10 µM, respectively.

As to `CC(C)(C)n1nc(Cc2ccc(Cl)cc2)cc1Nc1ccc(S(=O)(=O)Nc2nncs2)cc1` [Compound 111, 4-(1-tert-butyl-3-(4-chlorobenzyl)-1H-pyrazol-5-ylamino)-N-(1,3,4-thiadiazol-2-yl)benzenesulfonamide], the IC50 was under 2 µM in experiment [1] and 2 to 10 µM in experiment [2].

Regarding `NC(=O)c1cnn(-c2ccc(F)c(Cl)c2)c1Nc1ccc(S(=O)(=O)Nc2nccs2)cc1` [Compound 112, 1-(3-chloro-4-fluorophenyl)-5-(4-(N-thiazol-2-ylsulfamoyl)phenylamino)-1H-pyrazole-4-carboxamide], the IC50 in experiment [1] and in experiment [2] was over 1 µM in each case.

Turning to `CC(C)(C)c1csc(Nc2ccc(S(=O)(=O)Nc3nccs3)c(C#N)c2)n1` [Compound 113, 4-(4-tert-butylthiazol-2-ylamino)-2-cyano-N-(thiazol-2-yl)benzenesulfonamide], the IC50 was 2 to 10 µM in experiment [1] and over 1 µM in experiment [2].

`O=S(=O)(Nc1nccs1)c1ccc(Nc2cc(Cc3ccc(Cl)cc3)n[nH]2)cc1F` [Compound 115, 4-(3-(4-chlorobenzyl)-1H-pyrazol-5-ylamino)-2-fluoro-N-(thiazol-2-yl)benzenesulfonamide]: the IC50 in experiment [1] and in experiment [2] was under 2 µM throughout.

In the case of `Cn1nc(C2(c3ccc(Cl)cc3)CC2)cc1Nc1ccc(S(=O)(=O)Nc2nccs2)cc1` [Compound 129, 4-(3-(1-(4-chlorophenyl)cyclopropyl)-1-methyl-1H-pyrazol-5-ylamino)-N-(thiazol-2-yl)benzenesulfonamide], the IC50 in experiment [1] and in experiment [2] was under 2 µM each time.

As for `O=S(=O)(Nc1nccs1)c1ccc(Nc2cnn(CC(F)(F)F)c2)cc1F` [Compound 130, 2-fluoro-N-(thiazol-2-yl)-4-(1-(2,2,2-trifluoroethyl)-1H-pyrazol-4-ylamino)benzenesulfonamide], the IC50 in experiment [1] was under 2 µM; in experiment [2] it was 2 to 10 µM.

`Cn1nc(CC2CCCCC2)cc1Nc1ccc(S(=O)(=O)Nc2nccs2)c(F)c1` [Compound 133, 4-(3-(cyclohexylmethyl)-1-methyl-1H-pyrazol-5-ylamino)-2-fluoro-N-(thiazol-2-yl)benzenesulfonamide]: the IC50 in experiment [1] and in experiment [2] was under 2 µM each time.

`Cn1nc(CC2CCCCC2)cc1Nc1ccc(S(=O)(=O)Nc2nccs2)c(O)c1` [Compound 134, 4-(3-(cyclohexylmethyl)-1-methyl-1H-pyrazol-5-ylamino)-2-hydroxy-N-(thiazol-2-yl)benzenesulfonamide]: the IC50 in experiment [1] and in experiment [2] was under 2 µM in each case.

For `CC(C)c1cc(Nc2ccc(S(=O)(=O)Nc3nccs3)c(F)c2)n(-c2ccccc2)n1` [Compound 145, 2-fluoro-4-(3-isopropyl-1-phenyl-1H-pyrazol-5-ylamino)-N-(thiazol-2-yl)benzenesulfonamide], the IC50 in experiment [1] and in experiment [2] was under 2 µM each time.

Take `Cc1cc(Nc2ccc(S(=O)(=O)Nc3nccs3)c(F)c2)n(-c2ccccc2C)n1` [Compound 146, 2-fluoro-4-(3-methyl-1-o-tolyl-1H-pyrazol-5-ylamino)-N-(thiazol-2-yl)benzenesulfonamide]: the IC50 in experiment [1] and in experiment [2] was under 2 µM in each case.

For the molecule `Cc1ccc(-n2nc(C)cc2Nc2ccc(S(=O)(=O)Nc3nccs3)c(F)c2)cc1` [Compound 147, 2-fluoro-4-(3-methyl-1-p-tolyl-1H-pyrazol-5-ylamino)-N-(thiazol-2-yl)benzenesulfonamide], the IC50 in experiment [1] and in experiment [2] was under 2 µM throughout.
